“And” between values parts separate entries of the source, which are not always exact repeats. Equal values may be shown once.
Experiments:
[1] = system: hematological cancer cell lines; assay: Growth inhibitory effect of Compound 1 (Cell Titer-Glo, 72 hours, GI50) correlated with biomarkers; format: cell-based
Method: Cell Lines and Culture Conditions.
40 hematological cancer cell lines (Table 5) used in the study were purchased commercially. A lung cancer cell line A549 was used as a control cell line. A549 was purchased from National Cancer Institute (NCI) and cultured in RPMI+10% fetal bovine serum (FBS).
Cell pellets were made for 37 cell lines without any compound treatment and a reverse phase protein array (RPPA) was performed as described in Tibes R, et al. Mol Cancer Ther 2006; 5:2512-2521. The RPPA analysis of the 37 hematological cell lines was performed with 262 antibodies. The relative level of each protein in each sample was determined and normalized for protein loading. Protein levels were then transformed to log 2 values and median centered by individual batch.
Cells were lysed in RNeasy kit tissue lysis (RLT) buffer (Qiagen; Valencia, Calif.) and total RNA was isolated using RNeasy. Double-stranded cDNA and biotin-labeled cRNA were synthesized using 100 ng of total RNA using Ambion's MessageAmp Premier RNA Amplification Kit. […]
The seeding density for each cell line was optimized to ensure assay linearity in 384-well plates. […] When ready for testing, plates were removed from the freezer, thawed, and unsealed just prior to the addition of the test cells.
Prior to testing, cells were grown and expanded in culture flasks to provide sufficient amounts of starting material. […] At the time when exposure of cells to compound began (t0), initial cell number was assessed via a viability assay (Cell Titer-Glo) by quantifying the level of luminescence generated by adenosine-5′-triphosphate (ATP) present in viable cells. After 72 hours, cell viability of compound-treated cells was assessed via Cell Titer-Glo and read for luminescence.
Cell lines were assayed for growth inhibition by Compound 1 in at least 3 independent tests. […] The response of the control cell line to the compound was monitored closely to enable comparison of the data generated through the assay period. […] In addition, the IC50 value of Compound 1 for each cell line was calculated.

[2] = system: A549; assay: Repeat testing of pre-spotted Compound 1 plates against the control cell line (A549); format: cell-based; conditions: sealed 384-well plates stored at −20° C. for up to 1 month
Method: The seeding density for each cell line was optimized to ensure assay linearity in 384-well plates. Increasing concentrations of Compound 1 (0.5 nM to 10 μM) were spotted in a 10-point serial dilution fashion (3-fold dilution) in duplicate within the plate via an acoustic dispenser (EDCATS-100) into an empty 384-well plate. The dimethyl sulfoxide (DMSO) concentration was kept constant for a final assay concentration of 0.1% DMSO. Plates were replicated for use against different cell lines and testing periods. After compound plate replication, all plates were sealed (Agilent ThermoLoc) and stored at −20° C. for up to 1 month. […] When ready for testing, plates were removed from the freezer, thawed, and unsealed just prior to the addition of the test cells.

[3] = system: Advanced Solid Tumors, Non-Hodgkin Lymphoma or Multiple Myeloma; assay: Clinical Study A: Phase 1/2 dose finding study of Compound 1 administered orally (tumor response, RECIST 1.1); format: in vivo, human; parameters: key to RECIST* (best target lesion response): PR = partial response; SD = stable disease; PD = progressive disease; NE = nonevaluable; ND = not done
[4] = system: Advanced Solid Tumors, Non-Hodgkin Lymphoma, or Multiple Myeloma; assay: Clinical Study B: Phase 1/2 dose finding study of the mTOR kinase inhibitor Compound 1 administered orally (best RECIST overall response, variants, Tables 2 and 3); format: in vivo, human; parameters: key: PR=partial response; SD=stable disease; PD=progressive disease; NE=non-evaluable; ND=not done; *: Confirmed reponse; conditions: one line per patient
Method: A Phase 1/2, Multi-Center, Open-Label, Dose Finding Study to Assess the Safety. Tolerability, Pharmacokinetics and Preliminary Efficacy of the mTOR Kinase Inhibitor Compound 1 Administered Orally to Subjects with Advanced Solid Tumors, Non-Hodgkin Lymphoma, or Multiple Myeloma.
Compound 1 is administered orally to subjects with advanced solid tumors, non-Hodgkin lymphoma (NHL), or multiple myeloma (MM). The study is designed as a Phase 1/2 trial consisting of two parts: dose escalation (Part A) and dose expansion (Part B).
The primary objectives of the study are (a) to determine the safety and tolerability of Compound 1 when administered orally and to define the non-tolerated dose (NTD) and the maximum tolerated dose (MTD) and (b) to determine the preliminary pharmacokinetics (PK) of Compound 1 following both single and multiple oral dosing of Compound 1.
The secondary objectives of the study are: (a) to evaluate the extent of inhibition of phosphorylation of S6RP (Ser235/236 and/or Ser240/244) and/or 4EB-P1 (Thr37/46) for mTORC1 activity and AKT (Ser473) and/or other relevant biomarkers for mTORC2 activity in peripheral blood samples and tumor biopsies following treatment with Compound 1; (b) to provide information on the preliminary efficacy of Compound 1; and (c) to characterize PK of the metabolite of Compound 1 following oral dosing of Compound 1.
In Part A, subjects will receive single and multiple ascending doses of Compound 1 to measure pharmacokinetics (PK) and identify the maximum tolerated dose (MTD). A modified accelerated titration design (Simon et al, J Nat Cancer Inst (1997) Vol. 89, No. 15) will be used to identify initial toxicity. During the accelerated course, initial cohorts of one subject will be given Compound 1 in dose increments of 100% until the first instance of first-course grade 2 or higher toxicity suspected to be drug-related, at which point the accelerated phase will stop, and that particular cohort will be expanded to a total of 6 subjects. Subsequently, a standard escalation schedule, with approximately 50% dose increments and 6-subject cohorts, will be initiated in order to establish the non-tolerated dose (NTD) and MTD. Smaller increments and additional subjects within a dose cohort may also be evaluated. A dose will be considered the NTD when 2 evaluable subjects in a cohort experience drug-related DLT. When the NTD is established, dose escalation will stop. The MTD is defined as the last dose level below the NTD with 0 or 1 out of 6 evaluable subjects experiencing DLT during Cycle 1. An intermediate dose (ie, one between the NTD and the last dose level before the NTD) or additional subjects within any dose cohort may be required to more precisely determine the MTD.
In Part B, subjects may start Compound 1 at the MTD and/or a lower dose level based on safety, PK and PD data from Part A. Approximately 200 subjects will be treated and evaluated for safety and preliminary antitumor activity after every two cycles of therapy. Selected tumor types include non-small cell lung cancer (NSCLC), glioblastoma multiforme (GBM), hepatocellular carcinoma (HCC), gastrointestinal neuroendocrine tumor (NET) of non-pancreatic origin, hormone receptor positive breast cancer (HRPBC), diffuse large B-cell lymphoma (DLBCL), and multiple myeloma (MM). Up to 40 evaluable subjects will be enrolled for each tumor type.
Men and women, 18 years or older, with advanced NHL, MM, or advanced unresectable solid tumors, including subjects who have progressed on (or not been able to tolerate) standard therapy or for whom no standard anticancer therapy exists.
During the first cycle only in Part A, each subject will be administered a single dose of Compound 1 (Day −1), followed by a 48-hour observation and PK sampling period, followed on Day 1 by daily uninterrupted dosing for 28 days (Cycle 1=30 days). In subsequent Part A cycles, subjects are treated in 28-day cycles with continuous dosing from Day 1 to 28. […]

Compound: CO[C@H]1CC[C@H](N2C(=O)CNc3ncc(-c4ccc(C(C)(C)O)nc4)nc32)CC1 [Compound 1, 7-(6-(2-hydroxypropan-2-yl)pyridin-3-yl)-1-((trans)-4-methoxycyclohexyl)-3,4-dihydropyrazino[2,3-b]pyrazin-2(1H)-one]
- IRF4 protein levels versus sensitivity to growth inhibition ([1]; 37 hematological cancer cell lines, RPPA, FIG. 5): negatively correlated
- IRF4 gene expression level (Probe Set 216986_s_at) versus sensitivity to growth inhibition ([1]; 40 hematological cancer cell lines, FIG. 4): negatively correlated
- sensitivity versus activation of mTORC1 and mTORC2 (biomarker RPPA) ([1]; subgroup of DLBCL lines, FIG. 6): correlated
- stability in pre-spotted plates [2]: stable
- RECIST* (best target lesion response) ([3]; ER+ patients, genes with mutations of interest): SD (8×) and PD (3×) and PR (2×)
- showing RECIST PR ([3]; patients treated with Compound 1, FIG. 1, data as of September 2014): 2/17
- target lesions showing PR ([3]; patients treated with Compound 1, FIG. 1, data as of September 2014, all with PIK3CA mutations): 3/17
- Best overall response ([4]; patients with HCC exp. (expansion)): SD (2×) and NE
- Best overall response ([4]; patients with MM): PD (8×) and NE and SD (4×)
- Best overall response ([4]; patients with NET exp. (expansion)): SD (17×) and PD (2×) and NE and PR
- Best overall response ([4]; patients with NET): SD (18×) and NE (4×) and PR
- Best overall response ([4]; patients with NSCL+): PR and PD
- Best overall response ([4]; patients with NSCLC): NE (6×) and SD (11×) and PD (2×)
